The text below walks through data of patent US4479942A, “Tetrahydrofurnancarboxylic acid derivatives, processes for preparation thereof and pharmaceutical compositions thereof” (Fujisawa Pharmaceutical Co., Ltd., priority 1981, dated 1984).

≈ marks a conversion by molar mass, not a printed value.

In one data set the test system is Candida albicans OUT6004. The data set is described as follows: Antimicrobial activity test (in vitro), minimal inhibitory concentration against Candida, pulp assay method. The data set is classed as cell-based. Conditions: malt agar. The source says:
Antimicrobial activity test (in vitro):
Minimal inhibitory concentration (MIC) against Candida: (Candida albicans OUT6004)
Method: Pulp assay method

Data set [1] has as its system Candida albicans FP-633. The data set is described as follows: Minimal inhibitory concentration against Candida albicans, agar dilution method (FP-633). The data set is classed as cell-based. Conditions: FP633, malt agar. The text has this: (§1) Antimicrobial activities of the compound in Example 98 [1-(6-amino-9H-purin-9-yl)-1,3-dideoxy-3-(O-methyl-L-tyrosylamino)-β- D-ribofuranuronic acid dihydrochloride monohydrate] against some species of Candida.
(§2) Minimal inhibitory concentration (MIC) against Candida albicans:
(§3) Method: Agar dilution method
(In general: In agar dilution, organisms are placed on agar that contains the substance at set levels.)

In data set [2] the test system is Candida albicans FP-633. The data set is described as follows: Protective efficacy in experimental infection in mice. The data set is classed as in vivo, mice (ddY-strains). Conditions: one hour after i.v. infection, one week after infection. The text has this:
Protective efficacy in experimental infection in mice:
In determining the protective efficacy against experimental infections of Candida in mice, the compound in Example 98 [1-(6-amino-9H-purin-9-yl)-1,3-dideoxy-3-(O-methyl-L-tyrosylamino)-β- D-ribofuranuronic acid dihydrochloride monohydrate] was suspended and diluted in sterile water to provide three concentrations of the drug for testing ddY-strains of mice aged 5 weeks and averaging 20 g in weight. Mice were used in groups of 5 mice each. One hour after the intravenous injection of 3.0×10^6 of Candida albicans FP-633 cells to each mouse, the drug solutions were administered subcutaneously or orally at the level mentioned below respectively.
One week after the infection, the test was considered complete and survival records of that day were made.

A further data set deals with Candida albicans FP-618. Nature of the data set: Minimal inhibitory concentration against Candida albicans, agar dilution method (FP-618). The data set is classed as cell-based. Conditions: FP618, malt agar.
Source text: as §1, §2, §3

The next data set deals with Candida albicans FP-622. The data set is described as follows: Minimal inhibitory concentration against Candida albicans, agar dilution method (FP-622). The data set is classed as cell-based. Conditions: FP622, malt agar.
Source text: as §1, §2, §3

Data set [3] is described as follows: Toxicity, intraperitoneal administration into mice. The format is in vivo. Conditions: more than 1,000 mg/kg.
A short description of data set [4]: Solubilities to various solvents.
For another data set, the system named is Candida albicans FP-616. Nature of the data set: Minimal inhibitory concentration against Candida albicans, agar dilution method (FP-616). The data set is classed as cell-based. Conditions: FP616, malt agar.
Source text: as §1, §2, §3

Another data set deals with Candida albicans FP-614. Nature of the data set: Minimal inhibitory concentration against Candida albicans, agar dilution method (FP-614). The data set is classed as cell-based. Conditions: FP614, malt agar.
Source text: as §1, §2, §3

Another data set concerns Candida albicans FP-620. The data set is described as follows: Minimal inhibitory concentration against Candida albicans, agar dilution method (FP-620). The data set is classed as cell-based. Conditions: FP620, malt agar.
Source text: as §1, §2, §3

As a reminder, the MIC is the least concentration at which growth counts as inhibited. Lower therefore signals greater potency. On to `Nc1ncnc2c1ncn2[C@@H]1O[C@H](C(=O)O)[C@@H](NC(=O)C(N)Cc2ccc([N+](=O)[O-])cc2)[C@H]1O` (mixture of isomers) [Example 73, 1-(6-Amino-9H-purin-9-yl)-1,3-dideoxy-3-[β-(4-nitrophenyl)-D,L-alanylamino]-β-D-ribofuranuronic acid], for which the MIC in the data set with Candida albicans OUT6004 worked out at 31 µg/mL.

Turning to `Nc1ncnc2c1ncn2[C@@H]1O[C@H](C(=O)O)[C@@H](NC(=O)[C@@H](N)Cc2ccccc2)[C@H]1O` [Example 39, 1-(6-amino-9H-purin-9-yl)-1,3-dideoxy-3-(L-phenylalanylamino)-β-D-ribofuranuronic acid], the MIC in the data set on Candida albicans OUT6004 stood at 31 µg/mL (≈ 72.5 µM).

Compound `COc1ccc(C[C@H](N)C(=O)N[C@H]2[C@@H](O)[C@H](n3cnc4c(N)ncnc43)O[C@@H]2C(=O)NCC(=O)O)cc1` [Example 55, N-Carboxymethyl-1-(6-amino-9H-purin-9-yl)-1,3-dideoxy-3-(O-methyl-L-tyrosylamino)-β-D-ribofuranuronamide] had a minimal inhibitory concentration (MIC) in the data set with Candida albicans OUT6004 of 31 µg/mL (≈ 60.3 µM).

On to `COc1ccc(C[C@H](N)C(=O)N[C@H]2[C@@H](O)[C@H](n3cnc4c(N)ncnc43)O[C@@H]2C(=O)O)cc1.Cl.Cl.O` [Example 98, 1-(6-Amino-9H-purin-9-yl)-1,3-dideoxy-3-(O-methyl-L-tyrosylamino)-β-D-ribofuranuronic acid dihydrochloride monohydrate], for which the MIC in the data set with Candida albicans FP-633 [1] came out at 1.6 µg/mL; against Candida albicans OUT6004, 16 µg/mL; in the data set with Candida albicans FP-618, 0.8 µg/mL; with Candida albicans FP-622 it was 3.1 µg/mL; with Candida albicans FP-616, 0.2 µg/mL; against Candida albicans FP-614, 0.8 µg/mL. In the data set with Candida albicans FP-620, this compound came in with a minimum inhibitory concentration (MIC) of 0.2 µg/mL. Further, the Survival/infected in the data set on Candida albicans FP-633 [2] (oral, 10 mg/kg) was 1/5; in the data set on Candida albicans FP-633 [2] (oral, 30 mg/kg) it was 3/5; in the data set with Candida albicans FP-633 [2] (subcutaneous, 5 mg/kg) it was 1/5; in the data set with Candida albicans FP-633 [2] (subcutaneous, 15 mg/kg), 4/5. Moreover, the Toxic symptom result in [3] is listed as “did not result in any toxic symtom”. The Solubility entry is recorded as “Insoluble” in [4] (acetone); “Insoluble” in data set [4] (chloroform); “Insoluble” in [4] (ethyl acetate); “Slightly soluble” in [4] (methanol); “Slightly soluble” in [4] (water).
